Target: Cannabinoid receptor 2 (Homo sapiens, UniProt P34972)
Sequence (P34972 whole entry): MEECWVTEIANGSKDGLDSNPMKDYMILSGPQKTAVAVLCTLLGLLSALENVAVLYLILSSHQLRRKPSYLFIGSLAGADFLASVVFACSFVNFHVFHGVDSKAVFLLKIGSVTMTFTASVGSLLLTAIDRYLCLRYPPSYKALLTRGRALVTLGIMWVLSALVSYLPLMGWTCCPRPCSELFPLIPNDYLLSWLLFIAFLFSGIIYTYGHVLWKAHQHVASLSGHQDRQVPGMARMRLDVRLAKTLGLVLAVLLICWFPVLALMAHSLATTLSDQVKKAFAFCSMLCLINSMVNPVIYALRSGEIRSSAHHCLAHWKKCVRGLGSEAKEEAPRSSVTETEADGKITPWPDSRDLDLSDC

Ki: 1.82 µM
SMILES: O=C1C(CCC(O)c2ccc(F)cc2)C(c2ccc(O)cc2)N1c1ccc(F)cc1 (stereo unspecified) [CAS_44450418]

Reference: BindingDB's records for doi:10.1021/jm701519h (Cns Biological Research, 2008)
